Data set [1] can be described thus: Excretion study in rat urine, feces and bile after oral N. incisum extract. Format: in vivo, Sprague–Dawley rats. As to conditions: 0–72 h, oral 4.2 g kg^−1 N. incisum extract; for cumulative excretion in feces: rat feces; for cumulative excretion in urine: rat urine. An excerpt: Sixteen male Sprague–Dawley (SD) rats (200 ± 20 g) were divided into two groups (group 1 were for collecting urine and fecal samples in metabolic cages while group 2 were for collecting bile samples from the bile duct using polyethylene tubes). For group 1, the rats were orally given N. incisum extract dissolved in 0.5% CMC-Na at a dosage of 4.2 g kg^−1 and placed in metabolic cages enabling collection of urine and fecal samples separately. The urine and fecal samples were collected at time intervals of 0–4, 4–8, 8–12, 12–24, 24–36, 36–48, 48–60, and 60–72 h. For group 2, the rats were anaesthetized with chloral hydrate at a dose of 0.3 g kg^−1 administered intraperitoneally. A polyethene tube was used in cannulating the bile duct ensuring continuous flow of bile. The rats were then administered the extract at a dose of 4.2 g kg^−1 and the bile samples were then collected at different time intervals (0-1, 1-2, 2-3, 3-4, 4-5, 5-6, 6-7, 7-8, and 8-9 h). After the volumes of urine and bile obtained were measured, these samples were stored at −20°C until analysis. The preparation of the urine and bile samples were the same as the plasma sample preparation described above. On the other hand, the fecal samples after collection were dried out in a drying oven at 40°C. After measuring the weights of the fecal samples, they were crushed by a mortar to achieve a uniform powder; 0.1 g of powdered feces was measured and 1 mL methanol was added in 1.5 mL polythene tubes, mixed sufficiently for 3 min, and extracted ultrasonically for 30 min. They were then centrifuged at 18000 ×g for 10 min. Supernatants were transferred into vials for analysis using HPLC-FLD.

The nature of data set [2]: Stability of analytes in rat plasma (QC samples). Format: in vitro ADME. As to conditions: n = 6; for Stability, Autosampler for 24 h, Mean: extracted rat plasma, autosampler 24 h; for Stability, Freeze-thaw cycles, Mean / Stability, At −80°C for 1 month, Mean: rat plasma; for Stability, Freeze-thaw cycles, Mean: three freeze/thaw cycles. The method, then:
Mixed quality control (QC) samples at high, medium, low, and LLOQ concentrations were made by spiking appropriate mixed standard solutions into blank rat plasma, giving plasma concentration ranges of 600, 60, 12, and 4 ng mL^−1 for bergapten, 6000, 600, 120, and 40 ng mL^−1 for imperatorin, 600, 60, 12, and 4 ng mL^−1 for notopterol, and 300, 30, 6, and 2 ng mL^−1 for isoimperatorin, respectively, followed by the same sample preparation and extraction method described above.
The recovery was determined by comparing the observed peak area in extracted plasma samples to those of postprocessed spiked samples. […]

Data set [3] is described as follows: Pharmacokinetic study in rats after oral administration of N. incisum extract (HPLC-FLD of plasma). Format: in vivo, Sprague–Dawley rats. Here is the method:
HPLC analysis was performed on an Agilent 1100 HPLC (Agilent Technologies, USA) equipped with a quaternary pump, a degasser, an autosampler, a column thermostat compartment, and a diode array detector (DAD). An Agilent fluorescence detector was coupled to the Agilent system. Separation was carried out with a Hedera ODS column (4.6 mm × 250 mm, 5 μm) by gradient elution at a temperature of 40°C. Excitation and emission of the fluorescence detector were set to 300 nm and 490 nm, respectively. The analysis involved a constant flow rate of 1.0 mL min^−1 and an injection volume of 30 μL. The mobile phase comprised of (A) aqueous formic acid (0.1%, v/v) and (B) acetonitrile after degassing through ultrasonication using a gradient elution of 15–30% B at 0 to 10 min, 30–42% B at 10 to 20 min, 42% B at 20 to 65 min, 42–80% B at 65–70 min, and 80–90% at 70–75 min. The reequilibration time of gradient elution was 10 min. Owing to the similarity in polarity of imperatorin and notopterol, it was essential to maintain 42% of acetonitrile for 45 min to ensure that the two compounds were well separated.
To a 100 μL aliquot of plasma sample, 10 μL IS solution was added. Samples were vortex-mixed for 2 min, extracted with 1000 μL ethyl acetate, and then centrifuged for 10 min at 18000 ×g. Supernatant was transferred into another centrifuge tube and evaporated to dryness using nitrogen gas. The dried residue was reconstituted by adding 100 μL methanol. The solution was shaken and ultrasonicated for 2 min. It was then centrifuged at 18000 ×g for 10 min. A 30 μL of the solution was run with the HPLC and analysis was performed.
The PK study was carried out in accordance with the guidelines for the care and use of laboratory animals and approved by the Animal Ethics Committee of Tianjin University of Traditional Chinese Medicine. Eight male Sprague–Dawley rats weighing 180–220 g were kept at the animal center of Tianjin University of Traditional Chinese Medicine (Tianjin, China) with controlled conditions (temperature at 25 ± 2°C and relative humidity of 55 ± 5%). They were allowed free access to food and water and acclimatized for 7 days until 12 h before the experiment. According to the clinical dose used in human for each day, the rats were administered an oral dose of 4.2 g kg^−1 N. incisum extract suspended in 0.5% carboxymethylcellulose sodium salt aqueous solution (CMC-Na) and an amount of blood sample (200 μL) was collected at time 0, 0.083, 0.167, 0.25, 0.5, 0.75, 1, 1.5, 2, 3, 4, 6, 8, 12, and 24 h into heparin-pretreated tubes from the fossa orbitalis of each rat after oral administration of the extract. Blood plasma was immediately obtained by centrifuging the collected blood at 3300 ×g for 10 min and storing at −20°C until analysis.
The DAS software (Drug and Statistics 1.0, Medical College of Wannan, China), a computer program, was used in calculating the pharmacokinetic parameters after administering N. incisum extract. Bergapten, imperatorin, and isoimperatorin where analyzed using a one-compartment analysis while notopterol was processed using a two-compartment analysis based on Akaike's information criterion (AIC) estimation.

[4] abbreviates: high QC (600, 6000, 600, 300 ng mL^−1).
Where [5] appears, read: low QC (12, 120, 12, 6 ng mL^−1).
[6] abbreviates: medium QC (60, 600, 60, 30 ng mL^−1).
The mark [7] stands for this setting: male, Sprague-Dawley, rat, plasma, po, 4.2 g/kg, rat plasma, oral 4.2 g kg^−1 N. incisum extract, n = 8, mean ± SD, read-out: T 1/2 (converted).
Setting [8] is: male, Sprague-Dawley, rat, plasma, po, 4.2 g/kg, rat plasma, oral 4.2 g kg^−1 N. incisum extract, n = 8, mean ± SD, read-out: T max.
Setting [9] is: male, Sprague-Dawley, rat plasma, oral 4.2 g kg^−1 N. incisum extract, n = 8, mean ± SD, read-out: AUC0–∞.
The mark [10] stands for this setting: male, Sprague-Dawley, rat plasma, oral 4.2 g kg^−1 N. incisum extract, n = 8, mean ± SD, read-out: C max.
Setting [11] is: male, Sprague-Dawley, rat plasma, oral 4.2 g kg^−1 N. incisum extract, read-out: total drug exposure in rats in over 24 h, AUC0–24.
The mark [12] stands for this setting: rat plasma, oral 4.2 g kg^−1 N. incisum extract, n = 8, mean ± SD.
Where [13] appears, read: male, Sprague-Dawley, rat, in vivo, po, 4.2 g/kg.

Like-named read-outs stand apart in the source and are kept apart here. Some results are limits rather than exact numbers.

Take `COc1c2ccoc2cc2oc(=O)ccc12` [Bergapten, bergapten]: in data set [1], the “cumulative excretion in feces” value is “about 80%”. Further, in data set [2] (LLOQ QC (4, 40, 4, 2 ng mL^−1)), the “Stability, Autosampler for 24 h, Mean” value amounted to 100%; the “Stability, Freeze-thaw cycles, Mean” value is 106%; the “Stability, At −80°C for 1 month, Mean” value came out at 80.5%. Also, in data set [2] (setting [4]), the “Stability, Autosampler for 24 h, Mean” value turned out to be 88.9%; the “Stability, Freeze-thaw cycles, Mean” value worked out at 85.1%; the “Stability, At −80°C for 1 month, Mean” value came out at 112%. Further, in data set [2] (setting [5]), the “Stability, Autosampler for 24 h, Mean” value stood at 101%; the “Stability, Freeze-thaw cycles, Mean” value came out at 91.1%; the “Stability, At −80°C for 1 month, Mean” value came to 91.1%. Further, in data set [2] (setting [6]), the “Stability, Autosampler for 24 h, Mean” value was 115%; the “Stability, Freeze-thaw cycles, Mean” value was 83.6%; the “Stability, At −80°C for 1 month, Mean” value is on record as 104%. Moreover, in data set [3] (setting [7]), the half-life is 720 min. Also, in data set [3] (setting [8]), the Tmax is ~3 h. Moreover, in data set [3] (setting [9]), the AUC(0-inf) is 1960 ± 2490 ng·h/mL. Further, the Cmax in data set [3] (setting [10]) amounted to 184 ± 171 ng/mL. Moreover, the AUC(0-t) in data set [3] (setting [11]) was 1640 ± 2490 ng·h/mL. Moreover, in data set [3] (setting [12]), the “T 1/2” value was 12.8 ± 22.2 h and the T max was 3.06 ± 3.71 h.

Take `CC(C)=CCOc1c2occc2cc2ccc(=O)oc12` [Imperatorin, imperatorin]: in data set [3] (setting [13]), the AUC(0-inf) came out at 13900 ± 13900 ng·h/mL, the AUC(0-t) is 11000 ± 12000 ng·h/mL, the Cmax came out at 1670 ± 1500 ng/mL and the “T 1/2” value amounted to 4.99 ± 3.02 h. This compound also yielded a T max in data set [3] (setting [13]) of 1.65 ± 1.80 h. Also, the half-life in data set [3] (male, Sprague-Dawley, rat, in vivo, po, 4.2 g/kg, T 1/2) was ≤ 360 min. The Tmax in data set [3] (male, Sprague-Dawley, rat, in vivo, po, 4.2 g/kg, T max) was < 2 h.

For `CC(C)=CC(O)C/C(C)=C/COc1c2ccoc2cc2oc(=O)ccc12` (stereo not shown) [Notopterol, notopterol], in data set [1], the “cumulative excretion in feces” value is given as 54.1083 + 4.4359% and the “cumulative excretion in urine” value was 0.1171 + 0.0096%. Moreover, the half-life in data set [3] (setting [7]) is ≤ 360 min. Moreover, the AUC(0-inf) in data set [3] (setting [9]) came out at 296 ± 242 ng·h/mL. The Cmax in data set [3] (setting [10]) is 23.3 ± 6.87 ng/mL. The AUC(0-t) in data set [3] (setting [11]) worked out at 102 ± 34.8 ng·h/mL. Besides, in data set [3] (setting [12]), the “T 1/2” value is given as 3.18 ± 3.44 h and the T max came to 0.45 ± 0.35 h. The T max entry in data set [3] (rat plasma, oral 4.2 g kg^−1 N. incisum extract, n = 8, mean ± SD, listed as notopterol) was “below 2 h”.

Take `CC(C)=CCOc1c2ccoc2cc2oc(=O)ccc12` [Isoimperatorin, isoimperatorin]: in data set [1], the “cumulative excretion in feces” value is listed as 7.7284 + 2.2114% and the “cumulative excretion in urine” value is given as 0.0084 + 0.0016%. In addition, the half-life in data set [3] (setting [7]) was ≤ 360 min. Moreover, the Tmax in data set [3] (setting [8]) was < 2 h. Moreover, the AUC(0-inf) in data set [3] (setting [9]) was 2120 ± 2870 ng·h/mL. Also, in data set [3] (setting [10]), the Cmax was found to be 145 ± 75.9 ng/mL. For the same compound, the AUC(0-t) in data set [3] (setting [11]) is 830 ± 762 ng·h/mL. In data set [3] (setting [12]), the “T 1/2” value is given as 5.62 ± 4.06 h and the T max is recorded as 1.59 ± 0.97 h.

Turning to `COc1ccc2ccc(=O)oc2c1CC=C(C)C` [osthole, reference compound], the “detection in rat plasma” value in data set [3] (after oral 4.2 g kg^−1 N. incisum extract) is recorded as “not detected”.

(Values after publication PMC5220503, “Simultaneous Determination of Bergapten, Imperatorin, Notopterol, and Isoimperatorin in Rat Plasma by High Performance Liquid Chromatography with Fluorescence Detection and Its Application to Pharmacokinetic and Excretion Study after Oral Administration of Notopterygium incisum Extract” (International Journal of Analytical Chemistry, 2016).)
